# Laboratory results reported in patent US20250145585A1, “HETEROCYCLIC INHIBITORS OF IGF-1R FOR TREATMENT OF DISEASE” (HORIZON THERAPEUTICS IRELAND DAC, priority 2023, published 2025).
# Columns and labels:
# IGF-1R [1] = target: T1, IGF-1R (Homo sapiens, UniProt P08069); assay: Example B-1: IGF-1R Assay (PC3 cells stimulated with IGF1, AlphaLISA on cell lysates); format: cell-based; details: compound two hours, IGF1 200 ng/mL for 30 min, read-out: IC50, Biological Activity against IGF-1R (Table B1)
# T1 construct: expressed in transfected cells
# In short: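 IC50 from AlphaLISA read-out of lysed PC3 cells, percent inhibition normalized between vehicle and EC80 controls. Before lysis, cells had 2 h serum-free starvation, 2 h exposure to compound in 3× dilution series, and 30 min IGF1 stimulation at final 200 ng/mL.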
# IGF-1R [2] = target: T1, IGF-1R; assay: Example B-2: IGF-1R Assay (PathHunter cell lines, EC80 agonist challenge, chemiluminescent detection); format: cell-based; details: PathHunter cells, compound 60 minutes at 37° C., EC80 agonist 3 hours; read-out: IC50, Biological Activity against IGF-1R (Table B2)
# In short: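 Read-out is PathHunter chemiluminescence, developed for 1 h at room temperature after a 3 h room-temperature EC80 agonist challenge that followed 60 min compound pre-treatment at 37° C (1% vehicle). IC50 comes from % inhibition normalized to EC80 and vehicle controls.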
# T1 sequence (P08069 31-1367): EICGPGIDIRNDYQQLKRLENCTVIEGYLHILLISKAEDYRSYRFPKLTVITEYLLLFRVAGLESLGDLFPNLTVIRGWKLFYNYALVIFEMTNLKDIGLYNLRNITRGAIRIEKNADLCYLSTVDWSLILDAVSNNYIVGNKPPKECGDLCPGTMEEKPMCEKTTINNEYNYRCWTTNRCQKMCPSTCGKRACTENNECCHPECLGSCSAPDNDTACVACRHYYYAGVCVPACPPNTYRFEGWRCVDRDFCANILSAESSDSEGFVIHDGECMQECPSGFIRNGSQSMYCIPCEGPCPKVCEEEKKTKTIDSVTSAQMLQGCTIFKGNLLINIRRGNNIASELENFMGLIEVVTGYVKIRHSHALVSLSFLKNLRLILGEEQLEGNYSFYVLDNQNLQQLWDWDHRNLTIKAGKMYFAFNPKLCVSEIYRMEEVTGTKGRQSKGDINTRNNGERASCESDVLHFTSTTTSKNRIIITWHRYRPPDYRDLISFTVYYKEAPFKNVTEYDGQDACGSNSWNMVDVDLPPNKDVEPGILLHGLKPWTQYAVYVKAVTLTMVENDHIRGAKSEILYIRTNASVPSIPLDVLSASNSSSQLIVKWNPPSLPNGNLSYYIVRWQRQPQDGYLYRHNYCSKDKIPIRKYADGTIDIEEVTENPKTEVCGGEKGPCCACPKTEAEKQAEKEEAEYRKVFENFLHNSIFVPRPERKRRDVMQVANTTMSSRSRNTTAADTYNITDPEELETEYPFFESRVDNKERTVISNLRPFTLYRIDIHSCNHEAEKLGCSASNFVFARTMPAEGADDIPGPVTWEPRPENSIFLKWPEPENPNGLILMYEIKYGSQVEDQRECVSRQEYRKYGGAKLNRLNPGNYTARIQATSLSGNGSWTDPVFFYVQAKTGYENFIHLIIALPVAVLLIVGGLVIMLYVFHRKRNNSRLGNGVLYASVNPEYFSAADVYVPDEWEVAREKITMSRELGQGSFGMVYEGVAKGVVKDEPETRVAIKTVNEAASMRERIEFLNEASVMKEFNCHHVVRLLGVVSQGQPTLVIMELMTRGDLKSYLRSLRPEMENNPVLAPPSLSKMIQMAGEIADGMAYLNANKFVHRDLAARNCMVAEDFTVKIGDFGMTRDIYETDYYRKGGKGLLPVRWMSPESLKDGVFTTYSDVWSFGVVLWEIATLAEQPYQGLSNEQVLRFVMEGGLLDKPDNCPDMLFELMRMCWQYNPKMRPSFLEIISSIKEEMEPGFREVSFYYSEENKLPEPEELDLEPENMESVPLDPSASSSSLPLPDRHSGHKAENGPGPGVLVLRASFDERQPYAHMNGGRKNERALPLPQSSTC
IC50 (IGF-1R [1]),IC50 (IGF-1R [2]),SMILES
≤ 500 nM,≤ 500 nM,"CC1CC(Nc2cc(CN3C(=O)N(c4ccc(C5(C(F)(F)F)CC5)cc4)C(=O)C3(C)C)ccn2)CCO1 (stereo not shown) [Compound 127, 5,5-dimethyl-1-((2-((2-methyltetrahydro-2H-pyran-4-yl)amino)pyridin-4-yl)methyl)-3-(4-(1-(trifluoromethyl)cyclopropyl)phenyl) imidazolidine-2,4-dione]"
≤ 500 nM,≤ 500 nM,"CC1COCCC1Nc1cc(CN2C(=O)N(c3ccc(C4(C(F)(F)F)CC4)cc3)C(=O)C2(C)C)ccn1 (stereo not shown) [Compound 128, 5,5-dimethyl-1-((2-((3-methyltetrahydro-2H-pyran-4-yl)amino)pyridin-4-yl)methyl)-3-(4-(1-(trifluoromethyl)cyclopropyl)phenyl) imidazolidine-2,4-dione]"
≤ 500 nM,≤ 500 nM,"CC1(C)C(=O)N(c2ccc(C3(C#N)CCC3)cc2)C(=O)N1Cc1ccnc(NC2CCOCC2)c1 [Compound 129, 1-(4-(4,4-dimethyl-2,5-dioxo-3-((2-((tetrahydro-2H-pyran-4-yl)amino)pyridin-4-yl)methyl)imidazolidin-1-yl)phenyl)cyclobutane-1-carbonitrile]"
≤ 500 nM,≤ 500 nM,"CC1(C)C(=O)N(c2ccc(C3(C(F)(F)F)CCC3)cc2)C(=O)N1Cc1ccnc(NC2CCOCC2)c1 [Compound 130, 5,5-dimethyl-1-((2-((tetrahydro-2H-pyran-4-yl)amino)pyridin-4-yl)methyl)-3-(4-(1-(trifluoromethyl)cyclobutyl)phenyl) imidazolidine-2,4-dione]"
≤ 500 nM,≤ 500 nM,"CC(C)Nc1cc(CN2C(=O)N(c3ccc(C4(C#N)CCCC4)cc3)C(=O)C2(C)C)ccn1 [Compound 131, 1-(4-(3-((2-(isopropylamino)pyridin-4-yl)methyl)-4,4-dimethyl-2,5-dioxoimidazolidin-1-yl)phenyl)cyclopentane-1-carbonitrile]"
2000 to 10000 nM,500 to 2000 nM,"CC1(C)COCCC1Nc1cc(CN2C(=O)N(c3ccc(C4(C(F)(F)F)CC4)cc3)C(=O)C2(C)C)ccn1 (stereo not shown) [Compound 132, 1-((2-((3,3-dimethyltetrahydro-2H-pyran-4-yl)amino)pyridin-4-yl)methyl)-5,5-dimethyl-3-(4-(1-(trifluoromethyl)cyclopropyl)phenyl) imidazolidine-2,4-dione]"
500 to 2000 nM,500 to 2000 nM,"CC1(C)C(=O)N(c2ccc(C3(C(F)(F)F)CC3)cc2)C(=O)N1Cc1ccnc(NC2CCS(=O)(=O)CC2)c1 [Compound 133, 1-((2-((1,1-dioxidotetrahydro-2H-thiopyran-4-yl)amino)pyridin-4-yl)methyl)-5,5-dimethyl-3-(4-(1-(trifluoromethyl)cyclopropyl)phenyl) imidazolidine-2,4-dione]"
≤ 500 nM,500 to 2000 nM,"CC(c1ccnc(NC2CCOCC2)c1)N1C(=O)N(c2ccc(C3(C(F)(F)F)CC3)cc2)C(=O)C1(C)C (stereo not shown) [Compound 134, 5,5-dimethyl-1-(1-(2-((tetrahydro-2H-pyran-4-yl)amino)pyridin-4-yl)ethyl)-3-(4-(1-(trifluoromethyl)cyclopropyl)phenyl) imidazolidine-2,4-dione]"
≤ 500 nM,≤ 500 nM,"CC(c1ccnc(N)c1)N1C(=O)N(c2ccc(C3(C(F)(F)F)CC3)cc2)C(=O)C1(C)C (stereo not shown) [Compound 135, 1-(1-(2-aminopyridin-4-yl)ethyl)-5,5-dimethyl-3-(4-(1-(trifluoromethyl)cyclopropyl)phenyl) imidazolidine-2,4-dione]"
500 to 2000 nM,500 to 2000 nM,"CC1(C)C(=O)N(c2ccc(C3(C(F)(F)F)CC3)cc2)C(=O)N1Cc1ccnc(NC2CCS(=O)(=O)C2)c1 (stereo not shown) [Compound 136, 1-((2-((1,1-dioxidotetrahydrothiophen-3-yl)amino)pyridin-4-yl)methyl)-5,5-dimethyl-3-(4-(1-(trifluoromethyl)cyclopropyl)phenyl) imidazolidine-2,4-dione]"
≤ 500 nM,≤ 500 nM,"CC1(C)C(=O)N(c2ccc(C3(C(F)(F)F)CC3)cc2)C(=O)N1Cc1ccnc(NCCS(C)(=O)=O)c1 [Compound 137, 5,5-dimethyl-1-((2-((2-(methylsulfonyl)ethyl)amino)pyridin-4-yl)methyl)-3-(4-(1-(trifluoromethyl)cyclopropyl)phenyl) imidazolidine-2,4-dione]"
≤ 500 nM,≤ 500 nM,"CC1(Nc2cc(CN3C(=O)N(c4ccc(C5(C(F)(F)F)CC5)cc4)C(=O)C3(C)C)ccn2)CC1 [Compound 138, 5,5-dimethyl-1-((2-((1-methylcyclopropyl)amino)pyridin-4-yl)methyl)-3-(4-(1-(trifluoromethyl)cyclopropyl)phenyl) imidazolidine-2,4-dione]"
≤ 500 nM,≤ 500 nM,"C[C@@H](CC#N)Nc1cc(CN2C(=O)N(c3ccc(C4(C(F)(F)F)CC4)cc3)C(=O)C2(C)C)ccn1 [Compound 139, (S)-3-((4-((5,5-dimethyl-2,4-dioxo-3-(4-(1-(trifluoromethyl)cyclopropyl)phenyl)imidazolidin-1-yl)methyl)pyridin-2-yl)amino)butanenitrile]"
2000 to 10000 nM,2000 to 10000 nM,"CC(C)Nc1cc(CN2C(=O)N(c3ccc4c(c3)N(C)C(=O)C43CC3)C(=O)C2(C)C)ccn1 [Compound 185, 1-((2-(isopropylamino)pyridin-4-yl)methyl)-5,5-dimethyl-3-(1′-methyl-2′-oxospiro[cyclopropane-1,3′-indolin]-6′-yl)imidazolidine-2,4-dione]"
2000 to 10000 nM,2000 to 10000 nM,"CC(C)Nc1cc(CN2C(=O)N(c3ccc4c(c3)C(=O)N(C)C4(C)C)C(=O)C2(C)C)ccn1 [Compound 186, 1-((2-(isopropylamino)pyridin-4-yl)methyl)-5,5-dimethyl-3-(1,1,2-trimethyl-3-oxoisoindolin-5-yl)imidazolidine-2,4-dione]"
2000 to 10000 nM,2000 to 10000 nM,"CC(C)Nc1cc(CN2C(=O)N(c3ccc4c(c3)NC(=O)C43CC3)C(=O)C2(C)C)ccn1 [Compound 187, 1-((2-(isopropylamino)pyridin-4-yl)methyl)-5,5-dimethyl-3-(2′-oxospiro[cyclopropane-1,3′-indolin]-6′-yl)imidazolidine-2,4-dione]"
≤ 500 nM,≤ 500 nM,"CC(C)Nc1cc(CN2C(=O)N(c3ccc4c(c3)N(C)CC4(C)C)C(=O)C2(C)C)ccn1 [Compound 188, 1-((2-(isopropylamino)pyridin-4-yl)methyl)-5,5-dimethyl-3-(1,3,3-trimethylindolin-6-yl)imidazolidine-2,4-dione]"
≤ 500 nM,≤ 500 nM,"CC(C)Nc1cc(CN2C(=O)N(c3ccc4c(c3)OCC4(C)C)C(=O)C2(C)C)ccn1 [Compound 189, 3-(3,3-dimethyl-2,3-dihydrobenzofuran-6-yl)-1-((2-(isopropylamino)pyridin-4-yl)methyl)-5,5-dimethylimidazolidine-2,4-dione]"
2000 to 10000 nM,2000 to 10000 nM,"CC(C)Nc1cc(CN2C(=O)N(c3ccc4c(c3)S(=O)(=O)CC4(C)C)C(=O)C2(C)C)ccn1 [Compound 190, 3-(3,3-dimethyl-1,1-dioxido-2,3-dihydrobenzo[b]thiophen-6-yl)-1-((2-(isopropylamino)pyridin-4-yl)methyl)-5,5-dimethylimidazolidine-2,4-dione]"
≤ 500 nM,≤ 500 nM,"CC(C)Nc1cc(CN2C(=O)N(c3ccc4c(c3)N(C)CC43CCC3)C(=O)C2(C)C)ccn1 [Compound 191, 1-((2-(isopropylamino)pyridin-4-yl)methyl)-5,5-dimethyl-3-(1′-methylspiro[cyclobutane-1,3′-indolin]-6′-yl)imidazolidine-2,4-dione]"
500 to 2000 nM,2000 to 10000 nM,"Cn1nc(C(F)(F)F)c2ccc(N3C(=O)N(Cc4ccnc(N)c4)C(C)(C)C3=O)cc21 [Compound 255, 1-((2-aminopyridin-4-yl)methyl)-5,5-dimethyl-3-(1-methyl-3-(trifluoromethyl)-1H-indazol-6-yl)imidazolidine-2,4-dione]"
500 to 2000 nM,2000 to 10000 nM,"CC(C)Nc1cc(CN2C(=O)N(c3ccc4c(C(F)(F)F)nn(C)c4c3)C(=O)C2(C)C)ccn1 [Compound 256, 1-((2-(isopropylamino)pyridin-4-yl)methyl)-5,5-dimethyl-3-(1-methyl-3-(trifluoromethyl)-1H-indazol-6-yl)imidazolidine-2,4-dione]"
2000 to 10000 nM,2000 to 10000 nM,"CC(C)Nc1cc(CN2C(=O)N(c3ccc4c(C5CC5)n[nH]c4c3)C(=O)C2(C)C)ccn1 [Compound 258, 3-(3-cyclopropyl-1H-indazol-6-yl)-1-((2-(isopropylamino)pyridin-4-yl)methyl)-5,5-dimethylimidazolidine-2,4-dione]"
≤ 500 nM,500 to 2000 nM,"CC(C)(C)c1ccc(N2C(=O)N(Cc3ccnc(NC4CCCCC4)c3)C(C)(C)C2=O)cc1 [Compound 264, 3-(4-(tert-butyl)phenyl)-1-((2-(cyclohexylamino)pyridin-4-yl)methyl)-5,5-dimethylimidazolidine-2,4-dione]"
≤ 500 nM,≤ 500 nM,"CC(C)Nc1cc(CN2C(=O)N(c3ccc(C(C)(C)C)nc3)C(=O)C2(C)C)ccn1 [Compound 267, 3-(6-(tert-butyl)pyridin-3-yl)-1-((2-(isopropylamino)pyridin-4-yl)methyl)-5,5-dimethylimidazolidine-2,4-dione]"
≤ 500 nM,≤ 500 nM,"CC(C)Nc1cc(CN2C(=O)N(c3ccc(C(C)(C)C)cn3)C(=O)C2(C)C)ccn1 [Compound 277, 3-(5-(tert-butyl)pyridin-2-yl)-1-((2-(isopropylamino)pyridin-4-yl)methyl)-5,5-dimethylimidazolidine-2,4-dione]"
